The structures appear in SMILES notation.

Usually AUC(0-inf) stands for total exposure, with the tail of the curve extrapolated.

The target of data set [1] is T1, human platelet 12-lipoxygenase (12-LOX) (Homo sapiens, UniProt P18054).
T1 sequence (P18054 1-663): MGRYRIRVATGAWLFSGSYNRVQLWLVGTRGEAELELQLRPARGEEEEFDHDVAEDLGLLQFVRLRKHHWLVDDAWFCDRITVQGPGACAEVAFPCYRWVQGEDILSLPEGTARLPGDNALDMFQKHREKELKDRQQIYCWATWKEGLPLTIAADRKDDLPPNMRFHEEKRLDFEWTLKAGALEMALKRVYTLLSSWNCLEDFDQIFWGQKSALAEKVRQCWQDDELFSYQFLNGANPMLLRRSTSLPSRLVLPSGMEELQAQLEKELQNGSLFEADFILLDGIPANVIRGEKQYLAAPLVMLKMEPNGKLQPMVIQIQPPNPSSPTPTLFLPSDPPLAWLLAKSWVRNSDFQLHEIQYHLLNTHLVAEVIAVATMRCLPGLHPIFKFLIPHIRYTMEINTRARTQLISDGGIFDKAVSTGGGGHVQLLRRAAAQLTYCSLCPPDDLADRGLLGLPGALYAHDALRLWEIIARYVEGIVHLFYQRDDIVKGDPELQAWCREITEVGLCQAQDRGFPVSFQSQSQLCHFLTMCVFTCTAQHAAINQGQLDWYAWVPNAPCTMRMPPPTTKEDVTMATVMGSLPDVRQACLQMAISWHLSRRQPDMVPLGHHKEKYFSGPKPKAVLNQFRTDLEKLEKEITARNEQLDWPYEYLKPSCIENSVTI
Put plainly: Lipoxygenase UV–vis cuvette-based assay, 12-LOX. Type of data set: biochemical.

Another data set is described as follows: in vivo. The note with it: male, CD1, mouse, po, 30 mg/kg.
For the next data set, the target named is T2, 12-LOX (Homo sapiens, UniProt P18054).
T2 sequence (P18054 1-663): T1 sequence (P18054 1-663)
Put plainly: Steady-state inhibition kinetics. The format is biochemical.

For data set [2] the following is noted: pH 7.4, 48 h.
The conditions of data set [3]: in the presence of NADPH.

With `O=S(=O)(Nc1nccs1)c1ccc(NCc2ccccc2)cc1` [Compound 8], the “12-LOX inhibitory activity (in words)” value in data set [1] is reported as “complete loss of activity”.

Consider `O=S(=O)(Nc1nccs1)c1ccc(NCc2ccccc2O)cc1` [Compound 9], for which the “12-LOX inhibitory activity (in words)” value in data set [1] is “complete loss of activity”.

As for `Nc1ccccc1CNc1ccc(S(=O)(=O)Nc2nccs2)cc1` [Compound 13], the “12-LOX inhibitory activity (in words)” value in data set [1] is “negated all 12-LOX inhibitory activity”.

With `COc1cccc(CNc2ccc(S(=O)(=O)Nc3nc4ccccc4s3)cc2)c1O` [Compound 35, N-(Benzo[d]thiazol-2-yl)-4-((2-hydroxy-3-methoxybenzyl)-amino)benzenesulfonamide], in “PBS buffer”, the “PBS buffer (pH 7.4) solubility” value was less than 5 µg/mL. The AUC(0-inf) in the data set “in vivo” was 38 µM·h. Further, the “concentration at which calcium mobilization is reduced significantly” value in the data set with human platelets worked out at 250 nM.

In the case of `COc1cccc(CNc2ccc(S(=O)(=O)Nc3nc4ccccc4o3)cc2)c1O` [Compound 36], at 12-LOX, the mode of inhibition entry is listed as “mixed inhibitors”. For the same compound, the “PBS buffer (pH 7.4) stability at 48 h” value in data set [2] is recorded as 100%. The “PBS buffer (pH 7.4) solubility” value in the data set “PBS buffer” is more than 60 µg/mL. The “microsomal stability T1/2 (rat)” value in data set [3] is reported as >30 (rat) min.

Values taken from article PMC3967794 (Journal of medicinal chemistry, 2014).
